From ChEMBL document CHEMBL1201862, “PubChem BioAssay data set” (2004)
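Step 1: Grow cells in 96-well plates. Step 2: Expose to compound for 48 hours at 5 concentrations. Step 3: Interpolate endpoints linearly; if unreached, use highest concentration. The concentration for 50% growth inhibition is given as GI50.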 Calls of active or inactive are those of the source. No stated cut-off is given here; in the data, active = GI50 up to about 1.1 µM and inactive = higher.

Tests used:
Assay in all cases: inhibition of tumour cell growth, NCI panel, 48 h
BT-549 = system: BT-549
SK-OV-3 = system: SK-OV-3
MDA-MB-231 = system: MDA-MB-231
SF-268 = system: SF-268
TK-10 = system: TK-10
HL-60 = system: HL-60
SNB-75 = system: SNB-75
U-251 = system: U-251
SN12C = system: SN12C
A549 = system: A549
OVCAR-3 = system: OVCAR-3
ACHN = system: ACHN
RPMI-8226 = system: RPMI-8226
SK-MEL-5 = system: SK-MEL-5
786-0 = system: 786-0
NCI/ADR-RES = system: NCI/ADR-RES
MCF7 = system: MCF7
UO-31 = system: UO-31
NCI-H23 = system: NCI-H23
DLD-1 = system: DLD-1

| Structure (SMILES) | GI50 (BT-549) | GI50 (SK-OV-3) | GI50 (MDA-MB-231) | GI50 (SF-268) | GI50 (TK-10) | GI50 (HL-60) | GI50 (SNB-75) | GI50 (U-251) | GI50 (SN12C) | GI50 (A549) | GI50 (OVCAR-3) | GI50 (ACHN) | GI50 (RPMI-8226) | GI50 (SK-MEL-5) | GI50 (786-0) | GI50 (NCI/ADR-RES) | GI50 (MCF7) | GI50 (UO-31) | GI50 (NCI-H23) | GI50 (DLD-1) |
| --- | --- | --- | --- | --- | --- | --- | --- | --- | --- | --- | --- | --- | --- | --- | --- | --- | --- | --- | --- | --- |
| CN(CC(=O)O)Cc1c(O)c(Cl)cc(Cl)c1Cl | 75.5 µM (inactive) | > 100 µM (inactive) | 45.2 µM (inactive) | 21.4 µM (inactive) | 37.8 µM (inactive) | 13.9 µM (inactive) | 92.5 µM (inactive) | 17 µM (inactive) | 47 µM (inactive) | 53.7 µM (inactive) | 4.07 µM (inactive) | 36.5 µM (inactive) | 37.4 µM (inactive) | 24.7 µM (inactive) | 15.8 µM (inactive) | 26.8 µM (inactive) | 17.9 µM (inactive) | 23.2 µM (inactive) | 95.3 µM (inactive) |  |
| CC1(c2ccccc2)CC(c2cccc([N+](=O)[O-])c2)=NO1 (centres undefined) |  | > 100 µM (inactive) |  | > 100 µM (inactive) | > 100 µM (inactive) |  | > 100 µM (inactive) | > 100 µM (inactive) | > 100 µM (inactive) | > 100 µM (inactive) | > 100 µM (inactive) | > 100 µM (inactive) | 51.3 µM (inactive) | 56.2 µM (inactive) | > 100 µM (inactive) |  |  | 82.8 µM (inactive) | 89.1 µM (inactive) | > 100 µM (inactive) |
| COc1ccc2ccnc(Cc3ccc(OCc4ccccc4)c(OC)c3)c2c1 |  |  |  | 22.1 µM (inactive) | 27.9 µM (inactive) |  | 27 µM (inactive) | 20.9 µM (inactive) | 14.2 µM (inactive) | 24.4 µM (inactive) | 17.1 µM (inactive) | 23.6 µM (inactive) | 16.2 µM (inactive) | 15.1 µM (inactive) | 19.2 µM (inactive) |  |  | 6 µM (inactive) | 19.8 µM (inactive) | 25.5 µM (inactive) |
| COC(OC)c1cccnc1C |  | > 100 µM (inactive) |  | > 100 µM (inactive) | > 100 µM (inactive) | > 100 µM (inactive) | > 100 µM (inactive) | > 100 µM (inactive) | > 100 µM (inactive) | > 100 µM (inactive) | > 100 µM (inactive) | > 100 µM (inactive) |  | > 100 µM (inactive) | > 100 µM (inactive) |  |  | > 100 µM (inactive) | > 100 µM (inactive) | > 100 µM (inactive) |
| COc1cc(C(CC(OC)OC)=C(C#N)C#N)cc(OC)c1OC |  | 32.4 µM (inactive) |  | 41.6 µM (inactive) | 58.3 µM (inactive) | 19.5 µM (inactive) | 22.8 µM (inactive) | 13.3 µM (inactive) | 29.2 µM (inactive) | 28.8 µM (inactive) | 34.3 µM (inactive) | 26.7 µM (inactive) |  | 7.4 µM (inactive) | 21.4 µM (inactive) |  |  | 28.1 µM (inactive) | 28.1 µM (inactive) | 3.58 µM (inactive) |
| Cc1[nH]c2ncn3nc(C(Cl)(Cl)Cl)nc3c2c1Cc1ccccc1 | > 100 µM (inactive) | > 100 µM (inactive) | > 100 µM (inactive) | > 100 µM (inactive) | > 100 µM (inactive) | > 100 µM (inactive) | > 100 µM (inactive) | > 100 µM (inactive) | > 100 µM (inactive) | > 100 µM (inactive) | > 100 µM (inactive) | > 100 µM (inactive) | > 100 µM (inactive) | > 100 µM (inactive) | > 100 µM (inactive) | > 100 µM (inactive) | > 100 µM (inactive) | 10.5 µM (inactive) | > 100 µM (inactive) |  |
| Cc1ccc(-n2cnc(C(=N)C#N)c2N)cc1 | > 100 µM (inactive) | > 100 µM (inactive) | > 100 µM (inactive) | > 100 µM (inactive) | > 100 µM (inactive) | > 100 µM (inactive) | > 100 µM (inactive) | > 100 µM (inactive) | > 100 µM (inactive) | > 100 µM (inactive) | > 100 µM (inactive) | > 100 µM (inactive) | > 100 µM (inactive) | > 100 µM (inactive) | > 100 µM (inactive) | > 100 µM (inactive) | > 100 µM (inactive) | > 100 µM (inactive) | > 100 µM (inactive) |  |
| CCc1ccccc1NNc1cc(=O)[nH]c(=O)[nH]1 | 19.4 µM (inactive) | 22.6 µM (inactive) | 17.5 µM (inactive) | > 10 µM (inactive) | > 10 µM (inactive) | 26.7 µM (inactive) | 17.7 µM (inactive) | 17.4 µM (inactive) | 18.8 µM (inactive) | 24.5 µM (inactive) | 17.1 µM (inactive) | 16.9 µM (inactive) | 8.2 µM (inactive) | 17.3 µM (inactive) | 16.6 µM (inactive) | 13.3 µM (inactive) | 19.4 µM (inactive) | 17.2 µM (inactive) | 34.8 µM (inactive) |  |
| O=C(Nc1ccccc1-c1nc2ccccc2[nH]c1=O)c1ccccc1 |  | 20.3 µM (inactive) |  | 22.9 µM (inactive) | 17.1 µM (inactive) |  | 13.8 µM (inactive) | 23.3 µM (inactive) | 27.3 µM (inactive) | 25.9 µM (inactive) | 20.3 µM (inactive) | 20.1 µM (inactive) | 21.8 µM (inactive) | 32.6 µM (inactive) | 17.3 µM (inactive) |  |  | 19.6 µM (inactive) | 33.7 µM (inactive) | 29.2 µM (inactive) |
| S=C1CC(c2ccccc2)Sc2ccccc2N1 (centres undefined) | 53 µM (inactive) | 41.6 µM (inactive) | 45.2 µM (inactive) | 38.8 µM (inactive) | 49.3 µM (inactive) | > 100 µM (inactive) | 20.9 µM (inactive) | 44.2 µM (inactive) | 97.7 µM (inactive) | > 10 µM (inactive) | 45.5 µM (inactive) | 69 µM (inactive) | > 100 µM (inactive) | 66.8 µM (inactive) | > 10 µM (inactive) | 68.9 µM (inactive) | 44.4 µM (inactive) | > 100 µM (inactive) | 81.8 µM (inactive) |  |
| CC1(C)CN=C(Nc2cccc(C(F)(F)F)c2)S1 | > 100 µM (inactive) | > 100 µM (inactive) | 0.684 µM (active) | > 100 µM (inactive) | > 100 µM (inactive) | 59.3 µM (inactive) | > 100 µM (inactive) | > 100 µM (inactive) | > 100 µM (inactive) | > 100 µM (inactive) | > 100 µM (inactive) | > 100 µM (inactive) | > 100 µM (inactive) | > 100 µM (inactive) | > 100 µM (inactive) | > 100 µM (inactive) | > 100 µM (inactive) | > 100 µM (inactive) | > 100 µM (inactive) |  |
| COC(=O)C1(Cc2ccc3c(c2)CCC3)Cc2ccccc2C1O (centres undefined) | 18.7 µM (inactive) | 19.7 µM (inactive) | 21.3 µM (inactive) | 19.4 µM (inactive) | 22.1 µM (inactive) | 37.5 µM (inactive) | > 10 µM (inactive) | 16.8 µM (inactive) | 15.2 µM (inactive) | 20.5 µM (inactive) | 20.5 µM (inactive) | 18.3 µM (inactive) | 24.5 µM (inactive) | 16.3 µM (inactive) | 16.3 µM (inactive) | 18.7 µM (inactive) | 24.3 µM (inactive) | 15.7 µM (inactive) | 19.8 µM (inactive) |  |
| C=Cc1ccc(C)[n+](C[Si](C)(C)O[Si](C)(C)C)c1 |  | > 100 µM (inactive) |  | > 100 µM (inactive) |  |  | > 100 µM (inactive) | > 100 µM (inactive) | > 100 µM (inactive) | > 100 µM (inactive) | > 100 µM (inactive) | > 100 µM (inactive) | > 100 µM (inactive) | > 100 µM (inactive) | > 100 µM (inactive) |  |  | > 100 µM (inactive) | > 100 µM (inactive) | > 100 µM (inactive) |
| O=[N+]([O-])C(=C(N1CCCCC1)N1CCCCC1)/C(Cl)=C(\Cl)Br | 33.8 µM (inactive) | 48.1 µM (inactive) | 27.2 µM (inactive) | 29.6 µM (inactive) | 25.5 µM (inactive) | 15.2 µM (inactive) | 16.6 µM (inactive) | 18.7 µM (inactive) | 29.7 µM (inactive) | 32.7 µM (inactive) | 29.3 µM (inactive) | 24.9 µM (inactive) | 17.1 µM (inactive) | 21 µM (inactive) | 23.9 µM (inactive) | 27.2 µM (inactive) | 21.9 µM (inactive) | 34.5 µM (inactive) | 18.7 µM (inactive) |  |
| Oc1c(/N=N/c2ccccc2)c2ccccc2c2ccc3ccccc3c12 | 73.8 µM (inactive) | > 100 µM (inactive) | 78.3 µM (inactive) | > 100 µM (inactive) | > 100 µM (inactive) | 47.3 µM (inactive) | 64.1 µM (inactive) | 39.6 µM (inactive) | > 100 µM (inactive) | 43.2 µM (inactive) | > 100 µM (inactive) | 55.3 µM (inactive) | 45.6 µM (inactive) | > 100 µM (inactive) | 44.6 µM (inactive) | > 100 µM (inactive) | > 100 µM (inactive) | > 100 µM (inactive) | > 100 µM (inactive) |  |
| Cc1cc2c(ccc3c(C)cc(=O)oc32)o1 |  | > 100 µM (inactive) |  | > 81.3 µM (inactive) | > 100 µM (inactive) |  | 35.6 µM (inactive) | > 100 µM (inactive) | > 100 µM (inactive) | > 100 µM (inactive) | > 100 µM (inactive) | > 100 µM (inactive) | > 100 µM (inactive) | > 100 µM (inactive) | > 100 µM (inactive) |  |  | 98.9 µM (inactive) | > 100 µM (inactive) | > 100 µM (inactive) |
